According to US20050008715A1, “Method for preventing fungal growth in plants” (priority 2003, published 2005):
Marks after values point to notes of the source that are not given here.

What was measured:
Assay type in all cases: cell-based
Phytophthora capsici = test: Mycelial growth from inoculum plugs in amended basal nutrient solution; conditions: 48 hours
Procedure: (§1) The efficacy of the garlic extract was tested against […] soil-borne fungi that cause root and lower stem rots of plants. The fungal pathogens included: Pythium aphanidermatum, Pythium irregular, Pythium ultimum, Phytophthora capsici, Phytophthora cinnamomi, Phytophthora nicotiana, Rhizoctonia solani, Fusarium oxysporum f.sp. lycopersici, Fusarium oxysporum f.sp. spinaciae, and Thielaviopsis basicola. All isolates used in this investigation were known to be pathogenic to various cultivated plant species.
(§2) All isolates of Pythium aphanidermatum, Pythium irregular, Pythum ultimum, Phytophthora capsici, Phytophthora cinnamomi, Phytophthora nicotiana, Rhizoctonia solani, Fusarium oxysporum f.sp. lycopersici, Fusarium oxysporum f.sp. spinaciae were grown on standard corn meal agar (CMA) for 8 to 9 days. Plugs from inoculum plates were taken using a #4 cork borer (5 mm diameter). Inoculum plugs were placed into 5-cm sterile plastic petri dishes containing 10 ml of a basal nutrient solution that consisted of 60% (v/v) clarified V-8 juice and sterile distilled water (SDW). Basal nutrient solutions were amended with the appropriate treatments. Treatments included SDW (non-treated control), a fungicidal agent appropriate to each species (metylaxyl for the Pythium and Phytophthora species, PCNB for Rhizoctonia, and Allegiance(r) for Fusarium), or 10%, 15%, 20%, 25%, or 30% (v/v) garlic extract. Cultures were placed into a growth chamber and maintained in the dark at 22(C(1(C. After 48 hours, mycelial growth (if any was visible) from culture plugs was measured.

Phytophthora cinnamomi = test: as above; conditions: 48 hours
Procedure: as §1, §2

Phytophthora nicotiana = test: as above; conditions: 48 hours
Procedure: as §1, §2

Pythium aphanidermatum = test: as above; conditions: 48 hours
Procedure: as §1, §2

Pythium irregular = test: as above; conditions: 48 hours
Procedure: as §1, §2

Pythium ultimum = test: as above; conditions: 48 hours
Procedure: as §1, §2

[1] = test system: Pythium and Phytophthora species; test: Mycelial growth in amended basal nutrient solution; conditions: basal nutrient solution amended with metalaxyl
Procedure: as §1
as §2, with “Treatments included SDW (non-treated control), a fungicidal agent appropriate to each species (metylaxyl for the Pythium and Phytophthora species, PCNB for Rhizoctonia, and Allegiance(r) for Fusarium), or 10%, 15%, 20%, 25%, or 30% (v/v) garlic extract.” left out

Rhizoctonia solani = test: Mycelial growth from inoculum plugs in amended basal nutrient solution; conditions: for Growth of Rhizoctonia on amended basal nutrient solution: PCNB
Procedure: as §1, §2

[2] = Fungicide control (Metylaxyl) in basal nutrient solution
[3] = Fungicide control (Metylaxyl), from edge of inoculum plug

| Compound | Plates with visible mycelial growth (%) (Phytophthora capsici; [2]) | Measured growth (cm) (Phytophthora capsici; [3]) | Plates with visible mycelial growth (%) (Phytophthora cinnamomi; [2]) | Measured growth (cm) (Phytophthora cinnamomi; [3]) | Plates with visible mycelial growth (%) (Phytophthora nicotiana; [2]) | Measured growth (cm) (Phytophthora nicotiana; [3]) | Plates with visible mycelial growth (%) (Pythium aphanidermatum; [2]) | Measured growth (cm) (Pythium aphanidermatum; [3]) | Plates with visible mycelial growth (%) (Pythium irregular; [2]) | Measured growth (cm) (Pythium irregular; [3]) | Plates with visible mycelial growth (%) (Pythium ultimum; [2]) | Measured growth (cm) (Pythium ultimum; [3]) | Pythium and Phytophthora species that grew from the inoculum plugs [1] | Plates with visible mycelial growth (%) (Rhizoctonia solani; Fungicide control (PCNB) in basal nutrient solution, 48 hours) | Measured growth (cm) (Rhizoctonia solani; Fungicide control (PCNB), 48 hours, from edge of inoculum plug) | Growth of Rhizoctonia on amended basal nutrient solution (Rhizoctonia solani; first replication, inappropriate PCNB concentration) | Growth of Rhizoctonia on amended basal nutrient solution (Rhizoctonia solani; second replication) |
| --- | --- | --- | --- | --- | --- | --- | --- | --- | --- | --- | --- | --- | --- | --- | --- | --- | --- |
| COCC(=O)N(c1c(C)cccc1C)C(C)C(=O)OC (centres unmarked) [Metylaxyl] | 0 | 0 | 0 | 0 | 0 | 0 | 0 | 0 | 0 | 0 | 0 | 0 | none | – | – | – | – |
| O=[N+]([O-])c1c(Cl)c(Cl)c(Cl)c(Cl)c1Cl [PCNB] | – | – | – | – | – | – | – | – | – | – | – | – | – | 50^x % | 0.3 | limited amount of growth | did not grow |
